# No end group written: not given here.
# Assays:
# [1] = test system: guinea pig ileum specimens; experiment: Contracting activity of ATT(35-45) on guinea pig ileum specimens; format: cell-based; conditions: 10^−10 M to 3×10^−7 M
# Procedure: The horizontal axis in the figure represents the dose (M) of ATT(35-45), and the vertical axis represents the rate of contraction relative to the contraction of the guinea pig ileum specimens induced by 10^-6 M acetylcholine.
# The contracting activity of ATT(35-45) on guinea pig ileum specimens was determined in the following manner. 13 to 15-week old male guinea pigs (std: Hartley) were exsanguinated, and the ileum was excised. The ileum was cut to a length of 1.5 cm to prepare specimens. The specimens were aerated with a gas mixture (95% O^2-5% CO2) while suspended in Tyrode's solution (137.9 mM NaCl, 2.7 mM KCl, 1.8 mM CaCl2, 0.5 mM MgCl2, 1.1 mM NaH2PO4, 11.9 mM NaHCO3, and 5.6 mM glucose) maintained at 37° C., and the isotonic contractions under a 0.5 g load were recorded. The peptide was administered cumulatively in the organ bath.
# anesthetized rats = experiment: Activity of ATT(35-45) on blood pressure in anesthetized rats; format: in vivo, Male Wistar rats; conditions: for decrease in blood pressure: left femoral vein (i.v.), n=4, mean±standard deviation
# Procedure: The activity of ATT(35-45) on blood pressure in anesthetized rats was determined in the following manner. Male Wistar rats (weighing 300 to 400 g, by CLEA Japan Inc.) were anesthetized with thiobutabarbital sodium (100 mg/kg i.p.), a catheter (SP-55) for measuring blood pressure connected to a transducer was inserted into the left carotid artery, and a catheter (SP-35) for intravenous administration was inserted into the left femoral vein. The peptide was dissolved in physiological saline containing 0.05% BSA, and doses of 0.01, 0.1, and 1 nmol/kg were administered through the left femoral vein. The blood pressure was continuously recorded on a polygraph (NEC Sanei).
substance,measurement,setting,value
"TGKASQFFGLM-NH2 [ATT(35-45), Thr-Gly-Lys-Ala-Ser-Gln-Phe-Phe-Gly-Leu-Met-NH2]",contraction of guinea pig ileum specimens (in words),[1],concentration-dependent contraction
same,maximum contraction relative to the contraction induced with 10^−6 M acetylcholine,[1]; guinea pig ileum,about 90%
same,decrease in blood pressure,anesthetized rats; 0.01 nmol/kg,12.3±0.8 mmHg
same,decrease in blood pressure,anesthetized rats; 0.1 nmol/kg,21.5±1.8 mmHg
same,decrease in blood pressure,anesthetized rats; 1 nmol/kg,33.8±6.6 mmHg
same,effect on blood pressure (in words),"anesthetized rats; doses of 0.01, 0.1 and 1 nmol/kg i.v.",dose-dependent decreases in blood pressure

# Source: patent publication US7235531B2, “Tachykinin-like polypeptides and use thereof” (Takeda Pharmaceutical Company, priority 1999, dated 2007)
